Measured values from US8703701B2 (Indiana University Research and Technology Corporation, priority 2009, dated 2014).

How the values were obtained:
GLP-1 receptor = biological target: T1, GLP-1 receptor (Homo sapiens, UniProt P43220); assay: cAMP induction, firefly luciferase reporter assay, GLP-1 receptor; format: cell-based; conditions: Table 5; compared to native GLP-1
T1 construct: expressed in transfected cells; host or cells: HEK293
Protocol: (§1) The ability of each peptide to induce cAMP was measured in a firefly luciferase-based reporter assay.
(§2) At the end of the incubation, 100 μL of LucLite luminescence substrate reagent (Perkin Elmer, Wellesley, Mass.) were added to each well. The plate was shaken briefly, incubated 10 min in the dark and light output was measured on MicroBeta-1450 liquid scintillation counter (Perkin-Elmer, Wellesley, Mass.).

glucagon receptor = biological target: T2, glucagon receptor (Homo sapiens, UniProt P47871); assay: cAMP induction, firefly luciferase reporter assay, glucagon receptor; format: cell-based; conditions: Table 5; compared to native glucagon
T2 construct: expressed in transfected cells; host or cells: HEK293
T2 sequence (P47871 26-477): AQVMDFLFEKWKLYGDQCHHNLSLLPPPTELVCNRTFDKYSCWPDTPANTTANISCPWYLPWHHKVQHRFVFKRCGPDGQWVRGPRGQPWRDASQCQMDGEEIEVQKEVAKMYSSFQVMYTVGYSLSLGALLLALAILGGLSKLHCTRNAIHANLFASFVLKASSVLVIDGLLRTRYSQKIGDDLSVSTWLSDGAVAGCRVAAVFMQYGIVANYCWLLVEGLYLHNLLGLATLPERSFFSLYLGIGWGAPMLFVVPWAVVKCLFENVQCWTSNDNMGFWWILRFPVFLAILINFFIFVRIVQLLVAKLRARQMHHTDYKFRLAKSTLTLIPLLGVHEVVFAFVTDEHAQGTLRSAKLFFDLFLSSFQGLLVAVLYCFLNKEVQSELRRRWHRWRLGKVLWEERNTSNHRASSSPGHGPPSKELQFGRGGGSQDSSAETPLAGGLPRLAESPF
Protocol: as §1, §2

T1 sequence (P43220 24-463): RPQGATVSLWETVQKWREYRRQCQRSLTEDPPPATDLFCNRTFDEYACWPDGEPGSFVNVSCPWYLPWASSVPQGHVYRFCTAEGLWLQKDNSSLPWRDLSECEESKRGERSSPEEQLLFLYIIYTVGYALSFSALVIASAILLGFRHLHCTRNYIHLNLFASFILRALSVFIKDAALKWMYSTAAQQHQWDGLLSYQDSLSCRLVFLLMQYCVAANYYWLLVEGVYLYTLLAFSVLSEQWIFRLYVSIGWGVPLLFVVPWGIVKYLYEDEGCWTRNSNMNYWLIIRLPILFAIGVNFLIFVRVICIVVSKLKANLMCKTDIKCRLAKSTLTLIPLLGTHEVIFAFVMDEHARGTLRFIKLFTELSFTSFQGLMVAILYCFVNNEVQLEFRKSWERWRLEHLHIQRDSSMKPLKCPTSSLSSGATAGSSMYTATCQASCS

## CCCCCCCCCCCCCCCC(=O)N[C@@H](CCC(=O)NCCCC[C@H](NC(=O)[C@H](CC(=O)O)NC(=O)[C@H](CO)NC(=O)[C@@H](NC(=O)[C@H](Cc1ccccc1)NC(=O)[C@@H](NC(=O)CNC(=O)[C@H](CCC(N)=O)NC(=O)[C@@H](CO)NC(=O)[C@@H](N)Cc1c[nH]cn1)[C@@H](C)O)[C@@H](C)O)C(=O)N[C@@H](CO)C(=O)N[C@@H](CCCCN)C(=O)N[C@@H](Cc1ccc(O)cc1)C(=O)N[C@@H](CC(C)C)C(=O)N[C@@H](CC(=O)O)C(=O)N[C@@H](CCC(=O)O)C(=O)N[C@@H](CCC(N)=O)C(=O)N[C@@H](C)C(=O)N[C@@H](C)C(=O)N[C@@H](CCCCN)C(=O)N[C@@H](CCC(=O)O)C(=O)N[C@@H](Cc1ccccc1)C(=O)N[C@H](C(=O)N[C@@H](CS)C(=O)N[C@@H](Cc1c[nH]c2ccccc12)C(=O)N[C@@H](CC(C)C)C(=O)N[C@@H](CC(C)C)C(=O)N[C@@H](CC(=O)O)C(=O)N[C@H](C(N)=O)[C@@H](C)O)[C@@H](C)CC)C(=O)O [compound 53]
GLP-1 receptor
  Activity at GLP-1 Receptor % Relative Activity: 708%
Glucagon receptor
  Activity at Glucagon Receptor % Relative Activity: 411%
